The experiment has as its target T1, human full-length MKNK1 (Homo sapiens, UniProt Q9BUB5, T385D).
T1 construct: GST (N); purchased Carna Biosciences 02-145; host or cells: insect cells (baculovirus expression system)
The experiment in a line: MKNK1 kinase high ATP assay (TR-FRET). Type of experiment: biochemical. As to conditions: TR-FRET, 2 mM ATP (high ATP), 15 min preincubation with enzyme, 30 min reaction at 22° C.; read-out: MKNK1 IC50. In short, it runs like this:
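Full-length human MKNK1 (T385D) preincubated 15 min at 22 °C with compound in HEPES pH 7.5/MgCl2/DTT buffer; reaction with 2 mM ATP (final) and 0.06 μM biotinylated peptide (final), 30 min at 22 °C.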
In general terms: TR-FRET usually uses a lanthanide donor and a delayed reading to cut background.

Five molecules from US20190388425A1, “SUBSTITUTED IMIDAZOPYRIDINPYRIMIDINES” (Bayer Pharma Aktiengesellschaft, priority 2017, published 2019) can be followed below.

By IC50 is commonly meant the point on the concentration scale where inhibition reaches its midpoint.

T1 sequence (Q9BUB5 1-424 isoform Q9BUB5-2 T344D): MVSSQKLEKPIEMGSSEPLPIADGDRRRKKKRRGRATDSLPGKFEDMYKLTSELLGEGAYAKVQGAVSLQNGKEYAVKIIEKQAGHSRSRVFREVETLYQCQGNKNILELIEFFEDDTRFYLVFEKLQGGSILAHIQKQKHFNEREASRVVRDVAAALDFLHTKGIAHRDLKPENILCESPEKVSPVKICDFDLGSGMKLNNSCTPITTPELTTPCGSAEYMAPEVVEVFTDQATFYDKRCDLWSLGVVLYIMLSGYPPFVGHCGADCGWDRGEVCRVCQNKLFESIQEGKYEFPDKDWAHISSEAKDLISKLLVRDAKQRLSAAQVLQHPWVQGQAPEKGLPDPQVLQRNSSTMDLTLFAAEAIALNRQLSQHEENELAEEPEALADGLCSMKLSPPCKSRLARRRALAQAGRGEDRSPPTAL

On to `N#CC1CN(C(=O)[C@H]2CCc3c(sc4ncnc(Nc5cc(Cl)c6n(c5=O)C5(CCCCC5)NC6=O)c34)C2)C1` [Example 77, 1-({(7S)-4-[(8′-Chloro-1′,5′-dioxo-1′,5′-dihydro-2′H-spiro[cyclohexane-1,3′-imidazo[1,5-a]pyridin]-6′-yl)amino]-5,6,7,8-tetrahydro[1]benzothieno[2,3-d]pyrimidin-7-yl}carbonyl)azetidine-3-carbonitrile], for which the IC50 stood at 0.8 nM.

For `O=C1NC2(CCC2)n2c1c(Cl)cc(Nc1ncnc3sc4c(c13)CC[C@H](C(=O)N1CCC1)C4)c2=O` [Example 96, 6′-{[(7S)-7-(Azetidine-1-carbonyl)-5,6,7,8-tetrahydro[1]benzothieno[2,3-d]pyrimidin-4-yl]amino}-8′-chloro-2′H-spiro[cyclobutane-1,3′-imidazo[1,5-a]pyridine]-1′,5′-dione], the half-inhibitory concentration (IC50) was found to be 0.1 nM.

Turning to `Cc1cc(Nc2ncnc3sc4c(c23)CC[C@H](C(=O)N2CC(N(C)C)C2)C4)c(=O)n2c1C(=O)NC21CCCCC1` [Example 19, 6′-{[(7S)-7-{[3-(Dimethylamino)azetidin-1-yl]carbonyl}-5,6,7,8-tetrahydro[1]benzothieno[2,3-d]pyrimidin-4-yl]amino}-8′-methyl-2′H-spiro[cyclohexane-1,3′-imidazo[1,5-a]pyridine]-1′,5′-dione], the IC50 was determined as 0.9 nM.

`O=C1NC2(CCCC2)n2c1c(Cl)cc(Nc1ncnc3sc4c(c13)CC[C@H](C(=O)N1C[C@H]3C[C@@H]1CO3)C4)c2=O` [Example 92, 8′-Chloro-6′-({(7S)-7-[(1R,4R)-2-oxa-5-azabicyclo[2.2.1]heptane-5-carbonyl]-5,6,7,8-tetrahydro[1]benzothieno[2,3-d]pyrimidin-4-yl}amino)-2′H-spiro[cyclopentane-1,3′-imidazo[1,5-a]pyridine]-1′,5′-dione]: the IC50 amounted to 1 nM.

For the molecule `Cc1cc(Nc2ncnc3sc4c(c23)CC[C@H](C(=O)N2C[C@H]3C[C@@H]2CO3)C4)c(=O)n2c1C(=O)NC21CCCCC1` [Example 8, 8′-Methyl-6′-({(7S)-7-[(1R,4R)-2-oxa-5-azabicyclo[2.2.1]hept-5-ylcarbonyl]-5,6,7,8-tetrahydro[1]benzothieno[2,3-d]pyrimidin-4-yl}amino)-2′H-spiro[cyclohexane-1,3′-imidazo[1,5-a]pyridine]-1′,5′-dione], the IC50 amounted to 0.6 nM.
